Test results: ChEMBL document CHEMBL4396934, “Novel α,β-unsaturated hydroxamic acid derivatives overcome cisplatin resistance” (Bioorg Med Chem, 2019)
Activity calls are given as the source filed them. The calls are words filed in the database; no cut-off is given here.

Assays:
[1] = target: Histone deacetylase; experiment: Inhibition of HDAC in human CAL27 cells using Boc-Lys(epsilon-Ac)-AMC as substrate preincubated for 18 hrs followed by substrate addition and further incubation for 3 hrs by microplate reader based fluorescence assay; format: cell-based
[2] = target: Histone deacetylase; experiment: Inhibition of HDAC in human A2780 cells using Boc-Lys(epsilon-Ac)-AMC as substrate preincubated for 18 hrs followed by substrate addition and further incubation for 3 hrs by microplate reader based fluorescence assay; format: cell-based
[3] = test system: A2780; experiment: Antiproliferative activity against human A2780 cells after 72 hrs by microplate reader based MTT assay; format: functional, cell-based; settings: A2780, 72 h
[4] = test system: CAL-27; experiment: Antiproliferative activity against human CAL27 cells after 72 hrs by microplate reader based MTT assay; format: functional, cell-based; settings: CAL-27, 72 h
[5] = species on record: Homo sapiens; experiment: Induction of apoptosis in human Cal27CisR cells assessed as accumulation at sub-G1 phase at 1 uM after 48 hrs by propidium iodide staining based flow cytometry; format: functional, cell-based
[6] = target: T1, Histone deacetylase 8 (Homo sapiens, UniProt Q9BY41); experiment: Inhibition of C-terminal His-fusion tagged/N-terminal Strep-2 tagged recombinant human HDAC8 (1 to 377 residues) expressed in insect cells using Boc-Lys(TFa)-AMC as substrate preincubated for 5 mins followed by substrate addition and further incubation for 90 mins measured after 15 mins by microplate reader based fluorescence assay
T1 sequence (Q9BY41 whole entry): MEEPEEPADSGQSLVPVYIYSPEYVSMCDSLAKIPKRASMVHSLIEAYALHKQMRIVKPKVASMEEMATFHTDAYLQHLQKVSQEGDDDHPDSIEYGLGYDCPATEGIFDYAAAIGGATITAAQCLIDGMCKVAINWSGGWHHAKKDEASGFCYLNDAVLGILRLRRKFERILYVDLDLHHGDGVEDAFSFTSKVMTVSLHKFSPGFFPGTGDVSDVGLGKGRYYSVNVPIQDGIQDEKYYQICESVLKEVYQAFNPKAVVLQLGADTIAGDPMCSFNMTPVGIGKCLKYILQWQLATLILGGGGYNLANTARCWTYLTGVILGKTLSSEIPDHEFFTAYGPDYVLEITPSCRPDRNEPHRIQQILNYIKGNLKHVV

[7] = Potentiation of cisplatin-induced cytotoxicity in human Cal27CisR cells assessed as fold reduction in cisplatin IC50 at 1 uM preincubated for 48 hrs followed by cisplatin addition and further incubation for 72 hrs by MTT assay relative to cisplatin alone; format: functional
[8] = species on record: Homo sapiens; experiment: Induction of apoptosis in human Cal27CisR cells assessed as increase in caspase-3/7 activation at 1 uM after 48 hrs by CellEvent caspase 3/7 green detection reagent/Hoechst 33342 staining based arrayscan analysis; format: functional, cell-based
[9] = Potentiation of cisplatin-induced apoptosis in human Cal27CisR cells assessed as increase in accumulation at sub-G1 phase at 1 uM preincubated for 48 hrs followed by cisplatin addition and further incubation for 24 hrs by propidium iodide staining based flow cytometry relative to cisplatin alone; format: functional
[10] = test system: CAL-27; experiment: (§1) Potentiation of cisplatin-induced apoptosis in human CAL27 cells assessed as increase in caspase-3/7 activation at 0.5 uM preincubated for 48 hrs followed by cisplatin addition and further incubation for 24 hrs by CellEvent caspase 3/7 green detection reagent/Hoechst 33342 staining based arrayscan analysis; format: functional, cell-based
[11] = test system: CAL-27; experiment: (§2) Potentiation of cisplatin-induced apoptosis in human CAL27 cells assessed as caspase-3/7 activity at 0.5 uM preincubated for 48 hrs followed by cisplatin addition and further incubation for 24 hrs treated with 20 uM pan capsase inhibitor QVD for 30 mins prior to compound addition by CellEvent caspase 3/7 green detection reagent/Hoechst 33342 staining based arrayscan analysis; format: functional, cell-based
[12] = Potentiation of cisplatin-induced apoptosis in human Cal27CisR cells assessed as accumulation at sub-G1 phase at 1 uM preincubated for 48 hrs followed by cisplatin addition and further incubation for 24 hrs by propidium iodide staining based flow cytometry (reference value: 8.3 +/- 1.06%); format: functional
[13] = species on record: Homo sapiens; experiment: as §2, with “Cal27CisR” for “CAL27”, “1” for “0.5”; format: functional, cell-based
[14] = test system: CAL-27; experiment: Potentiation of cisplatin-induced cytotoxicity in human CAL27 cells assessed as fold reduction in cisplatin IC50 at 0.5 uM preincubated for 48 hrs followed by cisplatin addition and further incubation for 72 hrs by MTT assay relative to cisplatin alone; format: functional
[15] = target: Histone deacetylase 4 (Homo sapiens, UniProt P56524); experiment: (§3) Inhibition of C-terminal His-tagged/N-terminal GST-tagged recombinant human HDAC4 (627 to 1084 residues) expressed in Baculovirus infected insect cells using Boc-Lys(TFa)-AMC as substrate preincubated for 5 mins followed by substrate addition and further incubation for 90 mins measured after 15 mins by microplate reader based fluorescence assay
Chain of Histone deacetylase 4 (P56524 whole entry, the tested form may be a part): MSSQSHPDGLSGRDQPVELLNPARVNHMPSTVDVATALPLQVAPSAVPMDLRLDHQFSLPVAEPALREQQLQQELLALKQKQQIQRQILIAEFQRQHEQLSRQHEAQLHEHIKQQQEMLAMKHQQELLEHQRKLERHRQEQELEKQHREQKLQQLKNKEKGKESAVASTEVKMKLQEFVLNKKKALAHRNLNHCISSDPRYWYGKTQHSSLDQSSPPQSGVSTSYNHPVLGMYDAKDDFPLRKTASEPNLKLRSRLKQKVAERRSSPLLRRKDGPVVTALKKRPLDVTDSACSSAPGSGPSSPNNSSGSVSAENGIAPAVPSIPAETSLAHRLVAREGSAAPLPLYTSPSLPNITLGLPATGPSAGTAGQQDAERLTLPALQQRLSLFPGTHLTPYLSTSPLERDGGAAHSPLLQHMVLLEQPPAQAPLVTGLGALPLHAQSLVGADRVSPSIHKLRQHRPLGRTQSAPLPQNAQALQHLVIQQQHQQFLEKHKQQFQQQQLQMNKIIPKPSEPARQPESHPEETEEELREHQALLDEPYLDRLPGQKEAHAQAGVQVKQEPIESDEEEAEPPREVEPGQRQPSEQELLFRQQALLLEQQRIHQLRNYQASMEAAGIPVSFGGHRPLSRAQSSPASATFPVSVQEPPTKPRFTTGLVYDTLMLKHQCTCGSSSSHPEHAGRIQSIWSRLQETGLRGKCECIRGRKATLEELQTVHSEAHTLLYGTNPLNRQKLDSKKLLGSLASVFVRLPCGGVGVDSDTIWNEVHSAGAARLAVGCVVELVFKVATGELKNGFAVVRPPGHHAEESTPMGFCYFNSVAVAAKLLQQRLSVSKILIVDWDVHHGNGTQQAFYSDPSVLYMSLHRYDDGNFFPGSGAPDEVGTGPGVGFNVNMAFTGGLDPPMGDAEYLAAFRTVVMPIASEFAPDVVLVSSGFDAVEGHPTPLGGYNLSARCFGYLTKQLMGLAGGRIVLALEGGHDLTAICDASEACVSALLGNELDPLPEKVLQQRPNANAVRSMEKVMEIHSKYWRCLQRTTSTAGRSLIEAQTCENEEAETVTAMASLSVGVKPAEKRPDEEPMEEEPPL

[16] = test system: CAL-27; experiment: Induction of apoptosis in human CAL27 cells assessed as accumulation at sub-G1 phase at 0.5 uM after 48 hrs by propidium iodide staining based flow cytometry; format: functional, cell-based
[17] = target: T2, Protein deacetylase HDAC6 (Homo sapiens, UniProt Q9UBN7); experiment: as §3, with “N-terminal” for “C-terminal His-tagged/N-terminal”, “HDAC6 (1” for “HDAC4 (627”, “1215” for “1084”, “Boc-Lys(Ac)-AMC” for “Boc-Lys(TFa)-AMC”
T2 sequence (Q9UBN7 whole entry): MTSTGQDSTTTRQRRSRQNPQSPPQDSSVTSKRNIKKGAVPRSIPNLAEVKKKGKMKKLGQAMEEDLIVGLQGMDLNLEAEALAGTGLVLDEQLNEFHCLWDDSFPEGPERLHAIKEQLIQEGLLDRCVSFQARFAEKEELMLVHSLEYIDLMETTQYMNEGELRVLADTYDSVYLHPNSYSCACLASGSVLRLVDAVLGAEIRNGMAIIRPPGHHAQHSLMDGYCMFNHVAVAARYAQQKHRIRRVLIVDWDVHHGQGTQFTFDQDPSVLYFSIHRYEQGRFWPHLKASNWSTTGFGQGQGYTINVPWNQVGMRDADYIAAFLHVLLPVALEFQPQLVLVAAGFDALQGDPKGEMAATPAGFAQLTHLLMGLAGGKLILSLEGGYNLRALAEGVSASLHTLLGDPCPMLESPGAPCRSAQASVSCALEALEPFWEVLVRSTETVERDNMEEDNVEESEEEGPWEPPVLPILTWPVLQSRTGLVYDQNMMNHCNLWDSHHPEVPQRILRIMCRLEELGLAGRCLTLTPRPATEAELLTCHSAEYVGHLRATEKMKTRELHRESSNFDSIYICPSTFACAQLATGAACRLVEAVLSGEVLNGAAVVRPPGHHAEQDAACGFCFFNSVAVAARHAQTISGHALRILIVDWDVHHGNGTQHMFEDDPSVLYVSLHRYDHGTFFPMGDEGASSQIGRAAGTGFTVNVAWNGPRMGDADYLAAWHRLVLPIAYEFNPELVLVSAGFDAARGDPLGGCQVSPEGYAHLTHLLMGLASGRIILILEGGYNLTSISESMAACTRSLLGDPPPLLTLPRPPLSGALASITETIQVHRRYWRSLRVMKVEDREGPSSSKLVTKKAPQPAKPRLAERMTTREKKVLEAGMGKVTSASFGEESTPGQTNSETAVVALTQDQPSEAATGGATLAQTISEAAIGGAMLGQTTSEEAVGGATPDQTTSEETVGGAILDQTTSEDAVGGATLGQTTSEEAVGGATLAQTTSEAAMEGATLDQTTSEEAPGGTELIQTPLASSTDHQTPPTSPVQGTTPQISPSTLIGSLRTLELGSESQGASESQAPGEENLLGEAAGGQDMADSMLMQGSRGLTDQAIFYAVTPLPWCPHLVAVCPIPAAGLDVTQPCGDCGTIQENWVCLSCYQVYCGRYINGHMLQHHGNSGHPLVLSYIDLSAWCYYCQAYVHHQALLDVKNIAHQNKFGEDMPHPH

[18] = target: Histone deacetylase 2 (Homo sapiens, UniProt Q92769); experiment: biochemical; format: cell-based
Chain of Histone deacetylase 2 (Q92769 whole entry): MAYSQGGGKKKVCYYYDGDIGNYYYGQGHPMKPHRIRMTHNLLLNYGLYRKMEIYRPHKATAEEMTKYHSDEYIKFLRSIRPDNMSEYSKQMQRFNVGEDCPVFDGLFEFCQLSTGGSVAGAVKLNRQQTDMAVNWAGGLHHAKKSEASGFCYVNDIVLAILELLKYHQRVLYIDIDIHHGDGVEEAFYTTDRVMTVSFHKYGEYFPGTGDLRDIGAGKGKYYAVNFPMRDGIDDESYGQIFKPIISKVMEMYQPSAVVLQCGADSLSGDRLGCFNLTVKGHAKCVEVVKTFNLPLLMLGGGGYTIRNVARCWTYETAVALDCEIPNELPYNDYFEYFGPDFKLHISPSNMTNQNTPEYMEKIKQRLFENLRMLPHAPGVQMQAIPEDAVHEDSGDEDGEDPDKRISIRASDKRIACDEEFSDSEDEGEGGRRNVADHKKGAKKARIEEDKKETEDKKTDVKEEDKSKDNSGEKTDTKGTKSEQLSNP

[19] = test system: CAL-27; experiment: Potentiation of cisplatin-induced apoptosis in human CAL27 cells assessed as increase in accumulation at sub-G1 phase at 0.5 uM preincubated for 48 hrs followed by cisplatin addition and further incubation for 24 hrs by propidium iodide staining based flow cytometry relative to cisplatin alone; format: functional
[20] = species on record: Homo sapiens; experiment: as §1, with “Cal27CisR” for “CAL27”, “1” for “0.5”; format: functional, cell-based
[21] = test system: CAL-27; experiment: Induction of apoptosis in human CAL27 cells assessed as caspase-3/7 activity at 0.5 uM after 48 hrs by CellEvent caspase 3/7 green detection reagent/Hoechst 33342 staining based arrayscan analysis; format: functional, cell-based
[22] = test system: CAL-27; experiment: Potentiation of cisplatin-induced apoptosis in human CAL27 cells assessed as accumulation at sub-G1 phase at 0.5 uM preincubated for 48 hrs followed by cisplatin addition and further incubation for 24 hrs by propidium iodide staining based flow cytometry (reference value: 11.5 +/- 0.89%); format: functional

IC50 [1] [µM] | IC50 [2] [µM] | IC50 [3] [µM] | SMILES | IC50 [4] [µM] | other results
144 | 190 | 112 | O=C(/C=C/c1ccc(CONC(=O)Nc2ccccc2)cc1)NO | 62 | 
2.83 | 1.92 | 3.11 | O=C(/C=C/c1ccc(CONC(=O)c2ccc3ccccc3c2)cc1)NO | 3.65 | 
2.65 | 1.12 | 14 | Cc1[nH]c2ccccc2c1CC(=O)NOCc1ccc(/C=C/C(=O)NO)cc1 | 5.25 | 
 |  | 0.0548 | Cc1[nH]c2ccccc2c1CCNCc1ccc(/C=C/C(=O)NO)cc1 [PANOBINOSTAT] | 0.0109 | 
4.48 | 1.98 | 3.15 | O=C(/C=C/c1ccc(CONC(=O)c2nccc3ccccc23)cc1)NO | 4.21 | 
0.27 | 1.54 | 0.79 | O=C(/C=C/c1ccc(CONC(=O)c2ccc3ccccc3n2)cc1)NO | 0.8 | Activity [5]: inactive; Ki [6]: 4.7 µM; Ratio IC50 [7]: 6.86; Activity [8]: Active; fold change (FC) [9]: 4.7; Activity [10]: Active; Activity [11]: inactive; Activity [12]: 38.9%; Activity [13]: inactive; Ratio IC50 [14]: 5.69; Ki [15]: 9.54 µM; Activity [16]: inactive; Ki [17]: 0.1 µM; Ki [18]: 0.07 µM; fold change (FC) [19]: 3; Activity [20]: Active; Activity [21]: inactive; Activity [22]: 34.5%
3 | 7.6 | 1.7 | CCCCOc1ccc(C(=O)NOCc2ccc(/C=C/C(=O)NO)cc2)cc1 | 4.55 | 
11.6 | 19.2 | 2.02 | O=C(/C=C/c1ccc(CONC(=O)c2csc(-c3ccccc3)n2)cc1)NO | 16.3 | 
3.14 | 6.85 | 38.6 | COc1cc(C(=O)NOCc2ccc(/C=C/C(=O)NO)cc2)cc(OC)c1OC | 8.94 | 
1.09 | 0.9 | 2.33 | Cc1cc(C)cc(C(=O)NOCc2ccc(/C=C/C(=O)NO)cc2)c1 | 2.24 | 
1.12 | 1.54 | 2.01 | Cc1cc(C)cc(NC(=O)NOCc2ccc(/C=C/C(=O)NO)cc2)c1 | 2.27 | 
0.49 | 0.57 | 1.15 | COc1ccc(NC(=O)NOCc2ccc(/C=C/C(=O)NO)cc2)cc1 | 1.7 | Activity [5]: inactive; Ki [6]: 4.21 µM; Ratio IC50 [7]: 4.76; Activity [8]: Active; fold change (FC) [9]: 6; Activity [10]: Active; Activity [11]: inactive; Activity [12]: 52.2%; Activity [13]: inactive; Ratio IC50 [14]: 2.95; Ki [15]: 25.2 µM; Activity [16]: inactive; Ki [17]: 0.12 µM; Ki [18]: 0.15 µM; fold change (FC) [19]: 3; Activity [20]: Active; Activity [21]: inactive; Activity [22]: 36.7%
4.21 | 2.29 | 3.39 | Cc1cc(C)c(NC(=O)NOCc2ccc(/C=C/C(=O)NO)cc2)c(C)c1 | 3.49 | 
4.81 | 3.34 | 4.55 | CC(C(=O)NOCc1ccc(/C=C/C(=O)NO)cc1)(c1ccccc1)c1ccccc1 | 5.71 | 
5.65 | 4.03 | 3.57 | O=C(/C=C/c1ccc(CONC(=O)Nc2ccccc2-c2ccccc2)cc1)NO | 2.62 | 
40.3 | 43.2 | 38.9 | O=C(/C=C/c1ccc(CONC(=O)Nc2cccc3ccccc23)cc1)NO | 34.1 | 
14.2 | 6.85 | 35.4 | CCNC(=O)NOCc1ccc(/C=C/C(=O)NO)cc1 | 14 | 
1.16 | 0.94 | 2.08 | O=C(/C=C/c1ccc(CONC(=O)c2ccccc2)cc1)NO | 2.99 | 
